In PubChem BioAssay (NCI):
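Results reflect a 48-hour exposure of cells in 96-well plates to compound at five concentrations. Definition used: TGI = concentration required for complete inhibition of growth.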

What was measured:
Assay in all cases: DTP human tumour cell line panel, 48 h
U251 CNS = tested on: U251 CNS
MCF7 breast = tested on: MCF7 breast
A549 NSCLC = tested on: A549 NSCLC
IGROV1 ovarian = tested on: IGROV1 ovarian
OVCAR-4 ovarian = tested on: OVCAR-4 ovarian
SW-620 colon = tested on: SW-620 colon
SF-268 CNS = tested on: SF-268 CNS
SNB-75 CNS = tested on: SNB-75 CNS
UO-31 renal = tested on: UO-31 renal
SF-295 CNS = tested on: SF-295 CNS
LOX IMVI melanoma = tested on: LOX IMVI melanoma
HOP-92 NSCLC = tested on: HOP-92 NSCLC
MOLT-4 leukemia = tested on: MOLT-4 leukemia
CAKI-1 renal = tested on: CAKI-1 renal
BT-549 breast = tested on: BT-549 breast
MDA-N = tested on: MDA-N
MALME-3M melanoma = tested on: MALME-3M melanoma
CCRF-CEM leukemia = tested on: CCRF-CEM leukemia
COLO 205 colon = tested on: COLO 205 colon

| Structure (SMILES) | TGI (U251 CNS) | TGI (MCF7 breast) | TGI (A549 NSCLC) | TGI (IGROV1 ovarian) | TGI (OVCAR-4 ovarian) | TGI (SW-620 colon) | TGI (SF-268 CNS) | TGI (SNB-75 CNS) | TGI (UO-31 renal) | TGI (SF-295 CNS) | TGI (LOX IMVI melanoma) | TGI (HOP-92 NSCLC) | TGI (MOLT-4 leukemia) | TGI (CAKI-1 renal) | TGI (BT-549 breast) | TGI (MDA-N) | TGI (MALME-3M melanoma) | TGI (CCRF-CEM leukemia) | TGI (COLO 205 colon) |
| --- | --- | --- | --- | --- | --- | --- | --- | --- | --- | --- | --- | --- | --- | --- | --- | --- | --- | --- | --- |
| CCOc1cc(C2SCC(=O)N2c2ccc3c(c2)Oc2c(Cl)c4c(c(Cl)c2=N3)Oc2cc(N3C(=O)CSC3c3ccc(O)c(OCC)c3)ccc2N=4)ccc1O (stereo unspecified) | > 100 µM | > 100 µM | 83.4 µM | > 100 µM | > 100 µM | > 100 µM | > 100 µM | 50.5 µM | > 100 µM | > 100 µM | > 100 µM | 59.1 µM | > 100 µM | > 100 µM | > 100 µM | > 100 µM | – | – | – |
| C=CCc1cccc2cc(C(=O)Nc3ccc(C)cc3)c(=N)oc12 | > 100 µM | > 100 µM | > 100 µM | > 100 µM | > 100 µM | > 100 µM | > 100 µM | > 100 µM | – | – | > 100 µM | > 100 µM | > 100 µM | > 100 µM | > 100 µM | > 100 µM | > 100 µM | > 100 µM | > 100 µM |
| CC(=O)OCC1=CC2OC(=O)C3=COC(OC4OC(CO)C(O)C(O)C4O)C1C32 (stereo unspecified) | > 100 µM | > 100 µM | > 100 µM | > 100 µM | > 100 µM | > 100 µM | > 100 µM | > 100 µM | > 100 µM | > 100 µM | > 100 µM | > 100 µM | – | > 100 µM | > 100 µM | > 100 µM | – | > 100 µM | > 100 µM |
| C/C=C\C(CC(=O)NCCC1CN(C(=O)OCc2ccccc2)c2ccccc21)CC(=O)OC (stereo unspecified) | > 100 µM | > 100 µM | > 100 µM | > 100 µM | > 100 µM | > 100 µM | > 100 µM | > 100 µM | > 100 µM | > 100 µM | – | > 100 µM | > 100 µM | > 100 µM | > 100 µM | > 100 µM | > 100 µM | > 100 µM | > 100 µM |
| N#Cc1ccc([N+](=O)[O-])cc1NC(N)=S | > 100 µM | – | > 100 µM | > 100 µM | – | > 100 µM | > 100 µM | > 100 µM | > 100 µM | > 100 µM | – | > 100 µM | > 100 µM | > 100 µM | – | – | > 100 µM | – | > 100 µM |
